The source of these data is patent publication US20230330041A1, “APPLICATION OF TRIS (HYDROXYMETHYL) AMINOMETHANE PHARMACEUTICALLY ACCEPTABLE SALT TO DRUGS FOR TREATING […]” (BEIJING CHANGSHENG PHARMACEUTICAL TECHNOLOGY CO., LTD., priority 2020, published 2023).

The conditions of data set [1]: 36.5° C., 60 rpm. How it is done: Experimental materials were as follows: a. uric acid (crystal); b.
Background: An assumption was set that a 60 kg hyperuricemic patient with a total blood volume of 4500 ml has 7 mg of uric acid dissolved in 100 ml of blood and 3 mg of uric acid crystals in 100 ml of blood.

The test system of data set [2] is uric acid crystals in rat kidneys. To be noted: for kidney weight / serum uric acid: day 5; for kidneys observed with obvious radial white lines (uric acid crystal deposition): 5 days. How it is done:
Except for the normal control group, the other groups were intraperitoneally injected with 300 mg/kg of potassium oteronate and intragastrically perfused with 300 mg/kg of hypoxanthine, and the volume of injection and intragastrical perfusion were 5 ml/kg respectively. The normal control group was administered with the same volume of 0.5% CMC-Na, and the model was established at 0.5 h after the second administration every day with once a day and for five consecutive days. […] The normal and model control groups were administered with the same volume of 0.5% CMC-Na by gastric perfusion.
On the 4th day of the test, the rats were fasted overnight (about 16 h). On the 5th day of the test, the rats were weighed and anesthetized by intraperitoneal injection of 60 mg/kg sodium pentobarbital, with an injection volume of 2 ml/kg. About 0.7 mL of blood was collected from the orbit and then the kidney was removed. The whole blood was centrifuged at 6000 r/min for 10 min, the supernatant was taken and stored at -20° C. for keeping the blood uric acid content to be determined. The kidney was weighed, opened to observe the deposition of uric acid crystals in white radial pattern, and stored at -70° C. for future use.
Uric acid content determination: After the serum was rapidly remelted, the uric acid content was determined according to the method specified in the instructions for use, and the serum uric acid content was calculated.
Data processing: The data were expressed as mean ± standard deviation (x ± SD) and analyzed with SPSS 25.0 software. One-Way ANOVA was used for comparison among multiple groups. LSD test was used for homogeneity of variance, where P <0.05 was considered as statistically significant.

For data set [3] the following is noted: 50 mg sodium urate in 35 ml of 0.3 mol/L solution pH 7.4±0.5, 36.5° C., 4 hours, 60 rpm.

Read-outs that look alike come from different tables or passages of the source.

On to `Cl.NC(CO)(CO)CO` [Changsheng No. 1, trimethylol aminomethane hydrochloride], for which the Dissolving time in data set [1] (test 1: 0.3 mol/L, 0.5 ml/kg (30 ml), 7 mg dissolved + 3 mg crystalized uric acid per 100 ml) was determined as 4 h; in data set [1] (test 2: 0.3 mol/L, 1.0 ml/kg (60 ml), 7 mg dissolved + 3 mg crystalized uric acid per 100 ml), 2 h; in data set [1] (test 3: 0.3 mol/L, 1.5 ml/kg (90 ml), 7 mg dissolved + 3 mg crystalized uric acid per 100 ml) it was 2 h; in data set [1] (test 4: 0.3 mol/L, 2.0 ml/kg (120 ml), 7 mg dissolved + 3 mg crystalized uric acid per 100 ml) it was 0.5 h; in data set [1] (test 5: 0.3 mol/L, 3.0 ml/kg (180 ml), 7 mg dissolved + 3 mg crystalized uric acid per 100 ml), 0.5 h; in data set [1] (test 6: 0.6 mol/L, 0.5 ml/kg (30 ml), 7 mg dissolved + 8 mg crystalized uric acid per 100 ml) it was 4 h. Further, the Dissolving time in data set [1] (test 7: 0.6 mol/L, 1.0 ml/kg (60 ml), 7 mg dissolved + 8 mg crystalized uric acid per 100 ml) came out at 2 h; in data set [1] (test 8: 0.6 mol/L, 1.5 ml/kg (90 ml), 7 mg dissolved + 8 mg crystalized uric acid per 100 ml), 0.5 h. Further, the “uric acid crystal deposition in the kidney, dose dependence” value in data set [2] (0.85-3.40 g/kg, solution at pH 7.4) is “dose-dependently reduced”. Moreover, the kidney weight turned out to be 2.636 ± 0.491 g in data set [2] (0.85 g/kg), 2.507 ± 0.461 g in data set [2] (1.70 g/kg) and 2.207 ± 0.114 g in data set [2] (3.40 g/kg). Also, the serum uric acid in data set [2] (0.85 g/kg) is 976.91 ± 172.29 µmol/L; in data set [2] (1.70 g/kg) it was 838.42 ± 3.19 µmol/L; in data set [2] (3.40 g/kg), 965.17 ± 215.90 µmol/L. Besides, the “kidneys observed with obvious radial white lines (uric acid crystal deposition)” value in data set [2] (0.85 g/kg/day by gavage) is reported as 11/14; in data set [2] (1.7 g/kg/day by gavage) it was 5/14; in data set [2] (3.40 g/kg/day by gavage, hydrochloride), “no difference from that of the normal control group”; in data set [2] (3.40 g/kg/day by gavage, listed as Changsheng No.1, hydrochloride) it was “none of 14”. Besides, the “blood uric acid content compared with the model control group” value in data set [2] (all dose groups (0.85, 1.70, 3.40 g/kg)) is recorded as “effect of improvement”. Further, the “dissolution of uric acid in the solution” value (21 mg uric acid in 100 ml of 8 mM (pH 7.4) solution, stirring 1 hour) is “completely dissolved”. The “uric acid level at which the complex did not precipitate as crystals” value (after treatment with the solution, extrapolated to blood) is “up to 1260 µmol/L”. The “dissolution of sodium urate crystals” value in data set [3] is “dissolved completely”.
